Measured values: PubChem BioAssay AID330 (DTP/NCI, 2004)
“And” between values parts separate entries of the source, which are not always exact repeats. Equal entries are not always repeated. Inconclusive results and toxic doses are left out. Rule for the calls: active = survival T/C of 150% or more; inactive = T/C below 125% in these data. Square brackets hold non-standard residues; d marks the D form. Peptide text beside a SMILES is read from it. * marks the point of attachment. ξ: configuration not given here. Cbz = O=C(OCc1ccccc1)*; ξT = CC(O)C(N)C(=O)O; OBn = c1ccc(CO*)cc1

System: P388 leukemia ip, CD2F1 mice, survival T/C
Experiment: NCI In Vivo Anticancer Drug Screen. Data for tumor model P388 Leukemia (intraperitoneal) in CD2F1 (CDF1) mice
Settings: endpoint: median survival time, higher = longer survival
Procedure, shortened: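 Mice carrying the transplanted tumor received test compound or vehicle. Survival was recorded in each group, and the value is the treated-group measurement divided by that of the vehicle-treated control group.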

[1] = dose: 50.0 mg/kg/injection, schedule: Q01DX005 (ip), vehicle: saline with Tween-80
[2] = dose: 100.0 mg/kg/injection, schedule: Q01DX005 (ip), vehicle: saline with Tween-80
[3] = dose: 200.0 mg/kg/injection, schedule: Q01DX005 (ip), vehicle: saline with Tween-80
[4] = dose: 6.25 mg/kg/injection, schedule: Q01DX005 (ip), vehicle: saline with Tween-80
[5] = dose: 12.5 mg/kg/injection, schedule: Q01DX005 (ip), vehicle: saline with Tween-80
[6] = dose: 25.0 mg/kg/injection, schedule: Q01DX005 (ip), vehicle: saline with Tween-80
[7] = dose: 50.0 mg/kg/injection, schedule: Q01DX009 (ip), vehicle: Klucel (hydroxypropylcellulose) (HPC)
[8] = dose: 100.0 mg/kg/injection, schedule: Q01DX009 (ip), vehicle: Klucel (hydroxypropylcellulose) (HPC)
[9] = dose: 200.0 mg/kg/injection, schedule: Q01DX009 (ip), vehicle: Klucel (hydroxypropylcellulose) (HPC)
[10] = dose: 50.0 mg/kg/injection, schedule: Q01DX005 (ip), vehicle: Klucel (hydroxypropylcellulose) (HPC)
[11] = dose: 60.0 mg/kg/injection, schedule: Q01DX005 (ip), vehicle: saline with Tween-80
[12] = dose: 120.0 mg/kg/injection, schedule: Q01DX005 (ip), vehicle: saline with Tween-80
[13] = dose: 240.0 mg/kg/injection, schedule: Q01DX005 (ip), vehicle: saline with Tween-80
[14] = dose: 50.0 mg/kg/injection, schedule: Q01DX009 (ip), vehicle: saline with Tween-80
[15] = dose: 100.0 mg/kg/injection, schedule: Q01DX009 (ip), vehicle: saline with Tween-80
[16] = dose: 60.0 mg/kg/injection, schedule: Q01DX005 (ip), vehicle: Klucel (hydroxypropylcellulose) (HPC)
[17] = dose: 120.0 mg/kg/injection, schedule: Q01DX005 (ip), vehicle: Klucel (hydroxypropylcellulose) (HPC)
[18] = dose: 240.0 mg/kg/injection, schedule: Q01DX005 (ip), vehicle: Klucel (hydroxypropylcellulose) (HPC)
[19] = dose: 50.0 mg/kg/injection, schedule: Q01DX009 (ip), vehicle: saline
[20] = dose: 100.0 mg/kg/injection, schedule: Q01DX009 (ip), vehicle: saline
[21] = dose: 200.0 mg/kg/injection, schedule: Q01DX009 (ip), vehicle: saline
[22] = dose: 100.0 mg/kg/injection, schedule: Q04DX003 (ip), vehicle: saline with Tween-80
[23] = dose: 200.0 mg/kg/injection, schedule: Q04DX003 (ip), vehicle: saline with Tween-80
[24] = dose: 400.0 mg/kg/injection, schedule: Q04DX003 (ip), vehicle: saline with Tween-80
[25] = dose: 200.0 mg/kg/injection, schedule: Q01DX009 (ip), vehicle: saline with Tween-80

Measured: T/C

CC(O)C(NC(=O)OCc1ccccc1)C(=O)NCC(=O)NCC(=O)OCc1ccccc1 (stereo not drawn) (Cbz-[ξT]-Gly-Gly-OBn)
inactive: [1] 106 % of control | [2] 100 % of control | [3] 106 % of control

Cc1cccc(NCc2ccncc2)n1
inactive: [4] 92 % of control | [5] 102 % of control | [6] 100 % of control | [1] 100 % of control

COc1ccc(/C=C2\NC(c3ccccc3)OC2=O)cc1OC (stereo unspecified)
inactive: [7] 98 % of control | [8] 89 % of control | [9] 100 % of control

CCOC(=O)C(CC)c1ccncc1C (stereo unspecified)
inactive: dose: 25.0 mg/kg/injection, schedule: Q04DX002 (ip), vehicle: saline with Tween-80 106 % of control | dose: 50.0 mg/kg/injection, schedule: Q04DX002 (ip), vehicle: saline with Tween-80 114 % of control | dose: 100.0 mg/kg/injection, schedule: Q04DX002 (ip), vehicle: saline with Tween-80 118 % of control | dose: 200.0 mg/kg/injection, schedule: Q04DX002 (ip), vehicle: saline with Tween-80 110 % of control

O=[N+]([O-])c1ccc(-c2csc(COc3ccccc3)n2)cc1
inactive: dose: 50.0 mg/kg/injection, schedule: Q01DX009 (ip), vehicle: gum acacia 98 % of control | dose: 100.0 mg/kg/injection, schedule: Q01DX009 (ip), vehicle: gum acacia 101 % of control | dose: 200.0 mg/kg/injection, schedule: Q01DX009 (ip), vehicle: gum acacia 96 % of control

C/C(=N\NC(=S)N1CCN(c2ccccn2)CC1)c1cccc(C)n1
inactive: [4] 101 % of control and 107 % of control | [5] 103 % of control and 124 % of control | [6] 118 % of control

CC(NC(=O)OCc1ccccc1)C(=O)N1CCCC1C(=O)O (stereo unspecified)
inactive: [10] 91 % of control | dose: 100.0 mg/kg/injection, schedule: Q01DX005 (ip), vehicle: Klucel (hydroxypropylcellulose) (HPC) 90 % of control | dose: 200.0 mg/kg/injection, schedule: Q01DX005 (ip), vehicle: Klucel (hydroxypropylcellulose) (HPC) 98 % of control

COCc1onc(-c2ccc(OC)cc2)c1-c1ccc(OC)cc1
inactive: [11] 105 % of control | [12] 100 % of control | [13] 100 % of control

COC1NC(=O)NC(=O)C1=[N+]=[N-] (stereo unspecified)
active: dose: 2.5 mg/kg/injection, schedule: Q01DX009 (ip), vehicle: saline 168 % of control | dose: 5.0 mg/kg/injection, schedule: Q01DX009 (ip), vehicle: saline sonified 163 % of control | dose: 5.0 mg/kg/injection, schedule: Q01DX009 (ip), vehicle: saline with Tween-80 154 % of control | dose: 7.5 mg/kg/injection, schedule: Q01DX009 (ip), vehicle: saline with Tween-80 191 % of control | dose: 10.0 mg/kg/injection, schedule: Q01DX009 (ip), vehicle: saline sonified 159 % of control
inactive: dose: 75.0 micrograms/kg/injection, schedule: Q01DX009 (ip), vehicle: saline 109 % of control | dose: 150.0 micrograms/kg/injection, schedule: Q01DX009 (ip), vehicle: saline 113 % of control

CCC1(C)CC(C#N)(C#N)C(=O)NC1=O (stereo unspecified)
inactive: [11] 100 % of control | [12] 97 % of control | [13] 100 % of control

CC(=O)Nc1ccc(C)cc1C1SCCS1
inactive: dose: 25.0 mg/kg/injection, schedule: Q01DX009 (ip), vehicle: saline with Tween-80 90 % of control | [14] 105 % of control | [15] 97 % of control

CC1(C)OCC(C2OC(C)(C)OC2C(O)c2ccco2)O1 (stereo unspecified)
inactive: dose: 12.5 mg/kg/injection, schedule: Q01DX009 (ip), vehicle: distilled water + Tween-80 106 % of control and 100 % of control | dose: 25.0 mg/kg/injection, schedule: Q01DX009 (ip), vehicle: distilled water + Tween-80 115 % of control and 117 % of control | dose: 50.0 mg/kg/injection, schedule: Q01DX009 (ip), vehicle: distilled water + Tween-80 105 % of control and 118 % of control | dose: 100.0 mg/kg/injection, schedule: Q01DX009 (ip), vehicle: distilled water + Tween-80 118 % of control and 115 % of control | dose: 200.0 mg/kg/injection, schedule: Q01DX009 (ip), vehicle: distilled water + Tween-80 115 % of control

COC(=O)[C@@]12C(=O)N[C@@H](Cc3ccccc3)[C@@H]1[C@H](C)C(C)=C[C@@H]2CO
inactive: dose: 60.0 mg/kg/injection, schedule: Q01DX005 (ip), vehicle: saline 98 % of control | dose: 120.0 mg/kg/injection, schedule: Q01DX005 (ip), vehicle: saline 95 % of control | dose: 240.0 mg/kg/injection, schedule: Q01DX005 (ip), vehicle: saline 98 % of control

COC(=O)C1=COC(OC2OC(COC(C)=O)C(OC(C)=O)C(OC(C)=O)C2OC(C)=O)C2C(C)CC(OC(C)=O)C12 (stereo unspecified)
inactive: dose: 12.5 mg/kg/injection, schedule: Q01DX005 (ip), vehicle: Klucel (hydroxypropylcellulose) (HPC) 105 % of control | dose: 25.0 mg/kg/injection, schedule: Q01DX005 (ip), vehicle: Klucel (hydroxypropylcellulose) (HPC) 98 % of control | [10] 96 % of control

COC(=O)c1cccnc1C#N
inactive: dose: 30.0 mg/kg/injection, schedule: Q01DX005 (ip), vehicle: Klucel (hydroxypropylcellulose) (HPC) 100 % of control | [16] 110 % of control | [17] 102 % of control | [18] 112 % of control

COC(=O)C(N)C(C)C (stereo unspecified)
inactive: dose: 50.0 mg/kg/injection, schedule: Q01DX005 (ip), vehicle: saline 100 % of control | dose: 100.0 mg/kg/injection, schedule: Q01DX005 (ip), vehicle: saline 92 % of control

O=S(=O)(/C=C\c1ccccc1)/C=C/c1ccc(F)cc1
inactive: [1] 111 % of control | [2] 97 % of control | [3] 94 % of control

CCOC(=O)c1c(C(=O)Nc2ccccc2)c(-c2ccccc2)n(NC(=O)c2cccc(Cl)c2)c1C
inactive: [16] 98 % of control | [17] 94 % of control

CC(C)CC(NC(=O)C(CC(C)C)NC(=O)OCc1ccccc1)C(=O)O (stereo unspecified)
inactive: [1] 100 % of control | [2] 102 % of control | [3] 94 % of control

COc1cc(CC(N)C(C)=O)cc(OC)c1OC (stereo unspecified)
inactive: [19] 99 % of control | [20] 100 % of control | [21] 100 % of control

CCOC(=O)c1ccc(NC(=O)Nc2ccc(N(C)C(C)=O)cc2)cc1
inactive: [16] 90 % of control | [17] 90 % of control | [18] 88 % of control

COc1ccc2c3c(cnc2c1)P(C)(=O)CC3 (stereo unspecified)
inactive: [19] 101 % of control | [20] 96 % of control | [21] 102 % of control

CCOC(=O)/C=C/c1ccc2c(c1)OCO2
inactive: [22] 100 % of control | [23] 90 % of control | [24] 100 % of control

N=c1c2ccn(C3OC(CO)C(O)C3O)c2ncn1N (stereo unspecified)
inactive: dose: 6.25 mg/kg/injection, schedule: Q01DX009 (ip), vehicle: water 117 % of control | dose: 50.0 mg/kg/injection, schedule: Q01DX009 (ip), vehicle: water 121 % of control

O=c1[nH]c(=O)n(C2CC(O)C(CO)O2)cc1O (stereo unspecified)
inactive: dose: 50.0 mg/kg/injection, schedule: Q04DX003 (ip), vehicle: saline with Tween-80 100 % of control | [22] 101 % of control | [23] 99 % of control | [24] 101 % of control

CCOC(=O)c1ccc(NC(=O)Nc2nc3c(Cl)cccc3s2)cc1
inactive: [14] 104 % of control | [15] 94 % of control | [25] 87 % of control

COC(=O)C1CC(OC(C)=O)C2OC(C)(C)OC2C1OC(C)=O (stereo unspecified)
inactive: [7] 100 % of control | [8] 99 % of control | [9] 100 % of control

Cn1c(/C=N/N2CCOCC2)cnc1[N+](=O)[O-]
inactive: [14] 106 % of control | [15] 109 % of control | [25] 110 % of control
